Patent publication US8058437B2, “(Pyrroloquinoxalinyl) pyrazinecarbohydrazide-oxalic acid co-crystal for treatment of cancer and other diseases” (Novelix Pharmaceuticals, Inc., priority 2008, dated 2011)

Assays:
[1] = test system: human cancer cell lines (NCI60); experiment: Treatment of human cancer cell lines with NVX-412 (NCI screening procedure, SRB staining); type: cell-based
Method: Treatment of various cancer cell lines with NVX-412. Over 60 human cancer cell lines were treated with NVX-412 according to procedures detailed by the National Cancer Institute Developmental Therapeutics Program (see dtp.nci.nih.gov/branches/btb/ivclsp.html) and Shoemaker R H (Nat. Rev. Cancer, 6, 813-823, (2006)) and references cited therein. Many of the cell lines tested are available from the American Type Culture Collection (Rockville, Md., USA). The melanoma cell line 518A2 has been described previously (Jansen et al., “Activated N-Ras Contributes to the Chemoresistance of Human Melanoma in Severe Combined Immunodeficiency (SCID) Mice by Blocking Apoptosis,” Cancer Research 57, 362-65 (1997)). A typical screening of cancer cell treatment by NVX-412 employed the following procedure.
The human tumor cell lines of the cancer screening panel were grown in RPMI 1640 medium containing 5% fetal bovine serum and 2 mM L-glutamine. For a typical screening experiment, cells were inoculated into 96 well microtiter plates in 100 μL at plating densities ranging from 5,000 to 40,000 cells/well depending on the doubling time of individual cell lines. After cell inoculation, the microtiter plates were incubated at 37° C. in 5% CO2/95% air at 100% relative humidity for 24 hours prior to the addition of NVX-412. […]
Following the addition of NVX-412, the plates were incubated for an additional 48 hours at 37° C. in 5% CO2/95% air at 100% relative humidity. […] Bound stain was subsequently solubilized with 10 mM trizma base, and the absorbance was read on an automated plate reader at a wavelength of 515 nm. […] Using the seven absorbance measurements [time zero (Tz), control growth (C), and test growth in the presence of NVX-412 at the five concentration levels (Ti)], the percentage growth was calculated at each of the NVX-412 concentration levels. Percentage growth inhibition was calculated as: [(Ti−Tz)/(C−Tz)]*100 for concentrations for which Ti≧Tz [(Ti−Tz)/Tz]*100 for concentrations for which Ti<Tz.
Three dose response parameters were calculated. […]

[2] = test system: TC71luc Ewing tumor cell line; experiment: Ewing's sarcoma cell viability by luminescence, TC71luc; type: cell-based, human; conditions: 72 hours
Method: (§1) Treatment of Ewing's sarcoma with NVX-412. The TC71luc and TC32luc Ewing tumor cell lines stably express the luciferase gene. Cells were seeded into 96-well plates 24 hours before treating with the active compound to allow attachment. Cells were treated with NVX-412 for 72 hours. Serial dilutions of NVX-412 were prepared in medium from a 10 μM stock solution in DMSO. […] After 72 hours, cell viability was measured by luminescence using a Saphire2 plate reader.

[3] = test system: TC32luc Ewing tumor cell line; experiment: Ewing's sarcoma cell viability by luminescence, TC32luc; type: cell-based, human; conditions: 72 hours
Method: as §1

O=C(NNc1nc2cc(F)ccc2n2cccc12)c1cnccn1.O=C(O)C(=O)O [NVX-412, N′-(7-fluoropyrrolo[1,2a]quinoxalin-4-yl)pyrazine-2-carbohydrazide oxalic acid co-crystal]
GI50 ([1]; almost all cell lines tested, 48 hours incubation): nanomolar range
inhibition of tumor cell growth ([1]; cancer cell lines tested, summary): pronounced inhibition of tumor cell growth
effectiveness against cancer cell lines ([1]; sarcoma, melanoma, and CNS cancer cell lines, summary): very effective
fraction of cells remaining after three days, mean ([2]; TC71, NVX-412 5 nM): 1.00
fraction of cells remaining after three days, mean ([2]; TC71, NVX-412 10 nM): 0.97
fraction of cells remaining after three days, mean ([2]; TC71, NVX-412 25 nM): 0.95
fraction of cells remaining after three days, mean ([2]; TC71, NVX-412 50 nM): 0.92
fraction of cells remaining after three days, mean ([2]; TC71, NVX-412 75 nM): 0.76
fraction of cells remaining after three days, mean ([2]; TC71, NVX-412 100 nM): 0.50
fraction of cells remaining after three days, mean ([2]; TC71, NVX-412 150 nM): 0.21
fraction of cells remaining after three days, mean ([2]; TC71, NVX-412 200 nM): 0.08
fraction of cells remaining after three days, mean ([2]; TC71, NVX-412 375 nM): 0.01
fraction of cells remaining after three days, mean ([3]; TC32, NVX-412 5 nM): 1.03
fraction of cells remaining after three days, mean ([3]; TC32, NVX-412 10 nM): 0.96
fraction of cells remaining after three days, mean ([3]; TC32, NVX-412 25 nM): 0.95
fraction of cells remaining after three days, mean ([3]; TC32, NVX-412 50 nM): 0.91
fraction of cells remaining after three days, mean ([3]; TC32, NVX-412 75 nM): 0.69
fraction of cells remaining after three days, mean ([3]; TC32, NVX-412 100 nM): 0.44
fraction of cells remaining after three days, mean ([3]; TC32, NVX-412 150 nM): 0.15
fraction of cells remaining after three days, mean ([3]; TC32, NVX-412 200 nM): 0.06
fraction of cells remaining after three days, mean ([3]; TC32, NVX-412 375 nM): 0.01
